Here are results for eight compounds from PMC6806071 (2019).

For test [1], the system named is 56-mer VTD3 aptamer (DNA, aptamer) AGCAGCACAGAGGTCATGGGGGGTGTGACTTTGGTGTGCCTATGCGTGCTACGGAA
Put plainly: curcumin fluorescence displacement. The following applies: 0.1 mM NaCl; 5% ethanol; aptamer 100 nM, curcumin 0.6 µM displaced; up to 1 µM.

Test [2] has the same test system. Briefly: fluorescence titration, Langmuir fit. The following applies: 0.1 mM NaCl (methods: 0.1 M NaCl); 5% ethanol, 5 and 25 °C; curcumin 0.6 µM; b27 prints 0.7 µM, b25 0.7 nM.
Test [3] relates to 75-mer BPA aptamer (DNA, aptamer) ATACGAGCTTGTTCAATAGGAAATCACGATTAGGTCCTCCGTCTGTGTGCGGTTGTGGTGATAGTAAGAGCAATC
Briefly: fluorescence enhancement. The note with it: 0.1 mM NaCl; aptamer 100 nM, curcumin 0.6 µM.

For test [4], the system named is 56-mer VTD3 aptamer (DNA, aptamer) AGCAGCACAGAGGTCATGGGGGGTGTGACTTTGGTGTGCCTATGCGTGCTACGGAA
Briefly: fluorescence enhancement; CD. The following applies: 0.1 M NaCl; 5% ethanol; SYBR Green I 5 µM.

Test [5] has as its system 75-mer BPA aptamer (DNA, aptamer) ATACGAGCTTGTTCAATAGGAAATCACGATTAGGTCCTCCGTCTGTGTGCGGTTGTGGTGATAGTAAGAGCAATC
Put plainly: curcumin fluorescence displacement. The note with it: 0.1 mM NaCl; 5% ethanol; aptamer 100 nM, curcumin 0.6 µM displaced.

The subject of test [6] is Random ssDNA (70-mer) (DNA, single strand) AGGCCTAAGGGCATAATTAGCTCGAGCTCGAAAGGGGTTATATGATGATTTGAATTCATGGGGCCCGACT
Put plainly: curcumin fluorescence displacement. The following applies: 0.1 mM NaCl, 5% ethanol, curcumin 0.6 µM, no sensor response.

For test [7], the system named is 56-mer VTD3 aptamer (DNA, aptamer) AGCAGCACAGAGGTCATGGGGGGTGTGACTTTGGTGTGCCTATGCGTGCTACGGAA
Briefly: CD; curcumin fluorescence displacement. The following applies: 0.1 mM NaCl; CD: aptamer 0.8 µM, VTD3 20 µM; curcumin displaced.

Turning to `C[C@]12CC[C@@H]3c4ccc(O)cc4CC[C@H]3[C@@H]1CC[C@@H]2O`, the binding result in test [1] was “no”.

The KD is the equilibrium constant for the complex coming apart. A high value points to a looser complex. For the compound `COc1cc(/C=C/C(=O)CC(=O)/C=C/c2ccc(O)c(OC)c2)ccc1O`, in test [2], the KD was 0.7 nM. For the same compound, the binding entry in test [3] was “yes”.

On to `C=C1CC[C@H](O)C/C1=C/C=C1\CCC[C@]2(C)[C@@H]([C@H](C)/C=C/[C@H](C)C(C)C)CC[C@@H]12`, for which the binding result in test [1] is on record as “no”. In the case of `CCCN(CCCN(C)C)c1cc(C=C2Sc3ccccc3N2C)c2ccccc2[n+]1-c1ccccc1`, in test [4], the binding entry is “yes”. For `CC(=O)[C@H]1CC[C@H]2[C@@H]3CCC4=CC(=O)CC[C@]4(C)[C@H]3CC[C@]12C`, the binding entry in test [1] is reported as “no”.

For the compound `C[C@]12C=CC(=O)C=C1CC[C@@H]1[C@@H]2C(=O)C[C@@]2(C)[C@H]1CC[C@]2(O)C(=O)CO`, the binding result in test [1] is given as “no”. `CC(C)(c1ccc(O)cc1)c1ccc(O)cc1`: the binding result is recorded as “yes” in test [5] and “no” in test [6]. For the compound `C=C1CC[C@H](O)C/C1=C/C=C1\CCC[C@]2(C)[C@@H]([C@H](C)CCCC(C)C)CC[C@@H]12`, the binding result is “yes” in test [7] and “no” in test [6] (VTD3 up to 1 µM).
